Columns and labels:
EGFR T790ML858R = EGFR T790ML858R (Homo sapiens, UniProt P00533, L858R/T790M); assay: EGFR T790ML858R Lance assay; type: biochemical
Experimental: (§1) Inhibition is indicated as […] [nM] (“−”=not measured). Compounds having an activity designated as “A” provided an IC50≤100 nM; compounds having an activity designated as “B” provided an 100 nM<IC50≤500 nM; compounds having an activity designated as “C” provided an 500 nM<IC50≤1000 nM; compounds having an activity designated as “D” provided an 1000 nM<IC50≤100000 nM; and compounds having an activity designated as “E” provided an IC50>10000 nM.

H1975 = H1975 CellTiter-Glo; type: cell-based; settings: Homo sapiens, NCI-H1975; 72 h compound incubation; read-out: H1975 CTG IC50
Experimental: (§2) 2. Measurement of Cellular Activity
(§3) The CellTiter-Glo Luminescent Cell Viability Assay (Promega) is a homogeneous method of determining the number of viable cells in culture. It is based on quantification of ATP, indicating the presence of metabolically active cells. Cells are seeded on day 1 at cell numbers that assure assay linearity and optimal signal intensity. After incubation for 24 h in humidified chambers at 37° C. and 5% CO2, compounds in DMSO are added at different concentrations. Cells are further incubated for 72 h at 37° C. and 5% CO2. Cells treated with the compound vehicle DMSO are used as positive controls and cells treated with 10 μM Staurosporine serve as negative controls. At day 5 the CellTiter Glo Reagent is prepared according to the instructions of the kit (Promega Inc.): Reagent is mixed 1:1 with cell culture medium. Thereon, mixture and assay plates are equilibrated at room temperature for 20 min. Equal volumes of the reagent-medium-mixture is added to the volume of culture medium present in each well. The plates are mixed at ˜200 rpm for 2 minutes on an orbital shaker. The microplates are then incubated at room temperature for 10 minutes for stabilization of the luminescent signal. Following incubation the luminescence is recorded on a Victor microplate reader (Perkin Elmer) using a 200 ms integration time. The data is then analyzed with Excel using the XLFIT Plugin (dose response Fit 205) for IC50-determination. As quality control the Z′-factor is calculated from 16 positive and negative control values. Only assay results showing a Z′-factor ≥0.5 are used for further analysis.
as §1

[1] = target: Her2 Exon 20 INSYVMA Ba/F3 (Homo sapiens, UniProt P04626, DUP772-775, cells depend on it); assay: Her2 Exon 20 INSYVMA Ba/F3 CellTiter-Glo; type: cell-based; settings: CellTiter-Glo, 72 h, read-out: Her2 Exon 20 INSYVMA Ba/F3 CTG IC50
Chain of Her2 Exon 20 INSYVMA Ba/F3 (P04626 with tags, fused parts or gaps DUP772-775): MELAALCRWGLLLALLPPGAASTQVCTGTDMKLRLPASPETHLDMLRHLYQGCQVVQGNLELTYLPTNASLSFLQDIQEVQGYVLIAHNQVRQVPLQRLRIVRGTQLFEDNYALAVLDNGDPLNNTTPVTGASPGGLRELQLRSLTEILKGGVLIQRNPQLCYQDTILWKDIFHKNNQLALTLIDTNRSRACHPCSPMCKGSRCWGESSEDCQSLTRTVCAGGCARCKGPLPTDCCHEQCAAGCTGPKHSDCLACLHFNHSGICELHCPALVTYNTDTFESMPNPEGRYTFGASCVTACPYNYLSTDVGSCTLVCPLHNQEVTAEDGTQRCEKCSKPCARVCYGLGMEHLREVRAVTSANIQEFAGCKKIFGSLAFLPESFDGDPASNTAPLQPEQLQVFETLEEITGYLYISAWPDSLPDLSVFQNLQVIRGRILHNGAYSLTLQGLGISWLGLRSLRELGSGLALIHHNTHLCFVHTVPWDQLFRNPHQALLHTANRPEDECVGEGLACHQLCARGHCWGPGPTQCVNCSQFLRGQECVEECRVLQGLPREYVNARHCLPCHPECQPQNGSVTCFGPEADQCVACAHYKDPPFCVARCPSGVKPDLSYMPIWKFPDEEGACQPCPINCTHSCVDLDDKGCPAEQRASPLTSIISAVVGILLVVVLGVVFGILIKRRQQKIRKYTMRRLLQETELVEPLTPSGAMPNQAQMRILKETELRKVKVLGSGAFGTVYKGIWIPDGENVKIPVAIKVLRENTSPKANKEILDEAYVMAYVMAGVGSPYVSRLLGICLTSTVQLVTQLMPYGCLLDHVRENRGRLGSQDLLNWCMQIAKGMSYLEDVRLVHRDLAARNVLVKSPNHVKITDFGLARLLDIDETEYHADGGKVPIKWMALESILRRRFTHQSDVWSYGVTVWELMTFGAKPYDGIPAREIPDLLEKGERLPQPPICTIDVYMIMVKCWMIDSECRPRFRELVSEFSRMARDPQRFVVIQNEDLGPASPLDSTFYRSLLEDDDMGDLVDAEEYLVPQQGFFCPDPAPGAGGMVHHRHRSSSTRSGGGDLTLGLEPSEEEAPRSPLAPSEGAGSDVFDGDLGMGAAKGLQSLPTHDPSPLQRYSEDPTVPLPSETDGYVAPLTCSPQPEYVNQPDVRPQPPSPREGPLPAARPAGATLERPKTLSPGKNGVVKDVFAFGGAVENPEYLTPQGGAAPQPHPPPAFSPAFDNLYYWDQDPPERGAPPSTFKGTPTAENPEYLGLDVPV
Experimental: as §2, §3
(§4) Inhibition is indicated as IC50 [nM] (“−”=not measured). Compounds having an activity designated as “A” provided an IC50≤100 nM; compounds having an activity designated as “B” provided an 100 nM<IC50≤500 nM; compounds having an activity designated as “C” provided an 500 nM<IC50≤1000 nM; compounds having an activity designated as “D” provided an 1000 nM<IC50≤10000 nM; and compounds having an activity designated as “E” provided an IC50>10000 nM.

A431 = A431 CellTiter-Glo; type: cell-based; settings: Homo sapiens, A-431; 72 h compound incubation; read-out: A431 CTG IC50
Experimental: as §2, §3, §1

[2] = target: EGFR Exon 20 INSNPH Ba/F3 (Homo sapiens, UniProt P00533, DUP771-773, cells depend on it); assay: EGFR Exon 20 INSNPH Ba/F3 CellTiter-Glo; type: cell-based; settings: CellTiter-Glo, 72 h, read-out: EGFR Exon 20 INSNPH Ba/F3 CTG IC50
Chain of EGFR Exon 20 INSNPH Ba/F3 (P00533 with tags, fused parts or gaps DUP771-773): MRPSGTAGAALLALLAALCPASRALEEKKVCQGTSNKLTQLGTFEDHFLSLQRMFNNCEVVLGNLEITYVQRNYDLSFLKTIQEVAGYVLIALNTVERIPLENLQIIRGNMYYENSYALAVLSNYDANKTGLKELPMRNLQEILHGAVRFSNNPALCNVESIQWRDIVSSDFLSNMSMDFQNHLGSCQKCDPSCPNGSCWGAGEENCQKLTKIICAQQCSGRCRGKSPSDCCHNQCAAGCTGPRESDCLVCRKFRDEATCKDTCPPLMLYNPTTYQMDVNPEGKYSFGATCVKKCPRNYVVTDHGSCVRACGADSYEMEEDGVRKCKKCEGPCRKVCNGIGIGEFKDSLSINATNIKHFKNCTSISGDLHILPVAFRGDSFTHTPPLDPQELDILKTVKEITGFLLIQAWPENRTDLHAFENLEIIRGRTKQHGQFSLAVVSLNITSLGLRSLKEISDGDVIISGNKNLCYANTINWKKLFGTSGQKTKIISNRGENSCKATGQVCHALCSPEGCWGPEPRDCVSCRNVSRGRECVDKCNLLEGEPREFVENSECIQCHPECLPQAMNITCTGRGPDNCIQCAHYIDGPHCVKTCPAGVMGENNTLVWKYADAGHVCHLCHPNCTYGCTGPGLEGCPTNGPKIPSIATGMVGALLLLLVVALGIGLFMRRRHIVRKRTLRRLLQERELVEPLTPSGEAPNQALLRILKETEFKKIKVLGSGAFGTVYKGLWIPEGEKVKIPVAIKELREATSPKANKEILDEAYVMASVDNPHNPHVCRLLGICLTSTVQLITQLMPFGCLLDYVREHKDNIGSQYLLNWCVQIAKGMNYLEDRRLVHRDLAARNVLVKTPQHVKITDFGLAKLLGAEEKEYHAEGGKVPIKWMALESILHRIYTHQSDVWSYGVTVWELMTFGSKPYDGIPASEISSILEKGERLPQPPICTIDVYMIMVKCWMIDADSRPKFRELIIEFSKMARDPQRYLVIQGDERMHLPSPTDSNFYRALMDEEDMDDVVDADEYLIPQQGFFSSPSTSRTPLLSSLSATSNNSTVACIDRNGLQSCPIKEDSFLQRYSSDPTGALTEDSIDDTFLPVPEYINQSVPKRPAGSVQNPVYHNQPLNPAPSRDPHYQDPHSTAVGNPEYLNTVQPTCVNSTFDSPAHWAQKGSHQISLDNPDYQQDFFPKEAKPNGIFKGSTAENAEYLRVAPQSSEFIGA
Experimental: as §2, §3, §4

EGFR wt = EGFR wt (Homo sapiens, UniProt P00533); assay: EGFR wt Lance assay; type: biochemical
Chain of EGFR wt (P00533 25-1210): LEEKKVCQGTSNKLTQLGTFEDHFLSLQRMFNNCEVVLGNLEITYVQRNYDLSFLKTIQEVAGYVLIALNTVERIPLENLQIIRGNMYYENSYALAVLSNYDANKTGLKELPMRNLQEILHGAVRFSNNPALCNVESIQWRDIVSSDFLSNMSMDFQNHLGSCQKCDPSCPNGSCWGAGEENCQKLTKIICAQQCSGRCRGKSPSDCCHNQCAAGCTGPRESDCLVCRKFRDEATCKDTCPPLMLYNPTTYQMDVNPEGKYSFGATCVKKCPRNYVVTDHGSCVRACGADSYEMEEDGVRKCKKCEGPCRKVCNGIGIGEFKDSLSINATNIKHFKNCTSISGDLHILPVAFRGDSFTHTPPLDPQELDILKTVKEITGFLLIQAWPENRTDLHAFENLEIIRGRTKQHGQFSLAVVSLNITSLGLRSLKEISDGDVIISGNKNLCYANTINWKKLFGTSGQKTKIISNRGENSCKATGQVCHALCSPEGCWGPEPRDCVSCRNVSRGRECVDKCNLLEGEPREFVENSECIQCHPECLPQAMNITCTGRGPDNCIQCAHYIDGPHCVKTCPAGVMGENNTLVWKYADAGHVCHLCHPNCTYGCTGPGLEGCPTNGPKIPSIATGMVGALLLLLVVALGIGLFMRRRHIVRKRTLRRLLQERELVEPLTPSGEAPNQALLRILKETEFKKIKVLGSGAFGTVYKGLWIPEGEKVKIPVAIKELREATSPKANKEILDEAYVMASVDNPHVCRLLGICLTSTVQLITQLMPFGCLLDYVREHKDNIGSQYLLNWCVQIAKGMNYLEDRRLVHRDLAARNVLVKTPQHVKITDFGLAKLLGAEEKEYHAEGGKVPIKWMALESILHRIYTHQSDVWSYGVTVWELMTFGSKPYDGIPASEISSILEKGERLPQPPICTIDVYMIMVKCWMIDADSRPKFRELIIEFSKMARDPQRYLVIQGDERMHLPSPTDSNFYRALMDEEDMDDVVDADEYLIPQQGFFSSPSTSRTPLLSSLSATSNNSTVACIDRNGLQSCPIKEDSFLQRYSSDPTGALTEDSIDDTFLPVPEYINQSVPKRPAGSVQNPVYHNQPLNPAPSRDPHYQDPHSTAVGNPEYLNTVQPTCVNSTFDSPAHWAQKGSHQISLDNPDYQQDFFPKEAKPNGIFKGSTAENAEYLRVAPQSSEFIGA
Experimental: as §1

HER2 INS YVMA = target: T1, HER2 INS YVMA (Homo sapiens, UniProt P04626, INS775YVMA); assay: Lance Kinase Activity Assay, HER2 INS YVMA (Her2 Exon 20 INSYVMA Lance); type: biochemical; settings: biochemical Lance assay
T1 construct: purchased DPF
Experimental: 1. Measurement of HER2 INS YVMA Kinase Activity
This protocol describes how the Lance Kinase Activity Assay was performed to determine IC50 values of compounds of general formula (I) against HER2 INS YVMA. The principle behind this enzymatic assay is based upon the phosphorylation of the Ulight-peptide substrate. It is detected by using a specific EU-labeled anti-phospho peptide antibody. The binding of the Eu labeled anti-phospho peptide antibody to the phosphorylated ULight labeled peptide gives rise to a FRET-signal.
Binding of an inhibitor to the kinase prevents phosphorylation of the Ulight-substrate, resulting in a loss of FRET. In table 2 is summarized the relevant information for the LANCE assay.
The compounds of general formula (I) summarized in Table 3 were serial diluted from a 10 mM DMSO stock solution 1:3 over 8 steps in a total volume of 20 μl.
For every sample, 8 μl of kinase-substrate mix was transferred into a suitable assay plate (e.g. Corning #3673). Compound was added via pintool transfer (10 nl/well) using a Biomek FX robot (BeckmanCoulter). Reaction was started by addition of 2 μl ATP working solution and mixed using variomag teleshaker (Thermo Fischer Scientific). After 1 h incubation at room temperature the reaction was stopped with 10 μl detection mix containing the Eu-labeled phosphospecific antibody and 10 mM EDTA. After a second incubation period of 1 h at room temperature the FRET signal was measured at 340 nm excitation, 665 nm and 615 nm emission (for the ULight-substrate and Eu-AB, respectively) with an Envision spectrophotometer (Perkin Elmer, Waltham, Mass., USA) with 50 μs delay and 300 μs integration time. IC50 values were determined from the sigmoidal dose response curves with the software Quattro Workflow (Quattro GmbH, Munich, Germany).

Chain of EGFR T790ML858R (P00533 25-1210 T790M/L858R): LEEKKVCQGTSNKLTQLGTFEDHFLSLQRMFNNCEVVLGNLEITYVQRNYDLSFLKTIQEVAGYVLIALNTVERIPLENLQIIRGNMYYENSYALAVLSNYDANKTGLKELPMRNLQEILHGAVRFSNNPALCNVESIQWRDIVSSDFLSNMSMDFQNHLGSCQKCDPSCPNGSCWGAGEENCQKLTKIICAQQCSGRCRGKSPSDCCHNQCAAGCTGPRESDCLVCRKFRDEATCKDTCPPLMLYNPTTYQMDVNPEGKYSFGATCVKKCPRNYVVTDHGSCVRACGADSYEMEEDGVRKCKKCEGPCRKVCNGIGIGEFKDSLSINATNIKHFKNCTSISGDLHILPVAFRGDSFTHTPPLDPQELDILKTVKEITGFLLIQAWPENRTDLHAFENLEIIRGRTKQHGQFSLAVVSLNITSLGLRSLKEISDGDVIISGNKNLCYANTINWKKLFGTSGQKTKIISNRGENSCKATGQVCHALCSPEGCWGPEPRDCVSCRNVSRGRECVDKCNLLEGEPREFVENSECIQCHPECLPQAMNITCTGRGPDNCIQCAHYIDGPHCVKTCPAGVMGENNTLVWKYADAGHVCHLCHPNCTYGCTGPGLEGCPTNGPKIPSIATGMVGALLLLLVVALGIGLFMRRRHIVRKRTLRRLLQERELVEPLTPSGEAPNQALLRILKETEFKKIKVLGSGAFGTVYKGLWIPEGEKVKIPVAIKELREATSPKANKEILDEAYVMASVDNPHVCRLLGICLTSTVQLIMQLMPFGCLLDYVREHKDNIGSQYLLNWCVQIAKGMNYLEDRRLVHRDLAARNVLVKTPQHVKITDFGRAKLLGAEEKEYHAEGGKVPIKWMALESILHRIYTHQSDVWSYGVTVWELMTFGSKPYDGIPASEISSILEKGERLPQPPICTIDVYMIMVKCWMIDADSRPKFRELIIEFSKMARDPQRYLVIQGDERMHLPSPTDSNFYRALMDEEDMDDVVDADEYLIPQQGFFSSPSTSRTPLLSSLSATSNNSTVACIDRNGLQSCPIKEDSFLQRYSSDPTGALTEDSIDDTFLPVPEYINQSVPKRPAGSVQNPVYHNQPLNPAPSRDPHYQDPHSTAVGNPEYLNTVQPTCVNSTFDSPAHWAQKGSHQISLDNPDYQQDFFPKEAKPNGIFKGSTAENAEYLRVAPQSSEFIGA

| SMILES | IC50 (EGFR T790ML858R) | IC50 (H1975) | GI50 [1] | IC50 (A431) | GI50 [2] | IC50 (EGFR wt) | IC50 (HER2 INS YVMA) |
| --- | --- | --- | --- | --- | --- | --- | --- |
| C=CC(=O)Nc1cc(-c2c(-c3ccc(N4CCN(C)CC4)cc3)[nH]c3ncc(C(=O)NCc4ccc(NC(C)=O)cc4)cc23)ccc1C [Example 132, N-(4-acetamidobenzyl)-3-(3-acrylamido-4-methylphenyl)-2-(4-(4-methylpiperazin-1-yl)phenyl)-1H-pyrrolo[2,3-b]pyridine-5-carboxamide] | 100 to 500 nM | > 10000 nM | > 10000 nM | > 10000 nM | > 10000 nM | ≤ 100 nM | 500 to 1000 nM |
| C=CC(=O)Nc1cc(-c2c(-c3ccc(N4CCN(C)CC4)cc3)[nH]c3ncc(C(=O)NCc4cccc(S(N)(=O)=O)c4)cc23)ccc1C [Example 126, 3-(3-acrylamido-4-methylphenyl)-2-(4-(4-methylpiperazin-1-yl)phenyl)-N-(3-sulfamoylbenzyl)-1H-pyrrolo[2,3-b]pyridine-5-carboxamide] | ≤ 100 nM | > 10000 nM | > 10000 nM | > 10000 nM | > 10000 nM | ≤ 100 nM | 100 to 500 nM |
| C=CC(=O)Nc1cc(-c2c(-c3ccc(N4CCN(C)CC4)cc3)[nH]c3ncc(C(=O)NCc4cccnc4)cc23)ccc1C [Example 128, 3-(3-acrylamido-4-methylphenyl)-2-(4-(4-methylpiperazin-1-yl)phenyl)-N-(pyridin-3-ylmethyl)-1H-pyrrolo[2,3-b]pyridine-5-carboxamide] | ≤ 100 nM | 1000 to 100000 nM | 1000 to 10000 nM | 1000 to 100000 nM | 1000 to 10000 nM | ≤ 100 nM | ≤ 100 nM |
| C=CC(=O)Nc1cc(-c2c(-c3ccc(N4CCN(C)CC4)cc3)[nH]c3ncc(C(=O)NCc4ccncc4)cc23)ccc1C [Example 127, 3-(3-acrylamido-4-methylphenyl)-2-(4-(4-methylpiperazin-1-yl)phenyl)-N-(pyridin-4-ylmethyl)-1H-pyrrolo[2,3-b]pyridine-5-carboxamide] | ≤ 100 nM | 1000 to 100000 nM | 1000 to 10000 nM | 1000 to 100000 nM | 1000 to 10000 nM | ≤ 100 nM | ≤ 100 nM |
| C=CC(=O)Nc1cc(-c2c(-c3ccc(C4CCN(C)CC4)cc3)[nH]c3ncc(C(=O)OC(C)C)cc23)ccc1C [Example 149, isoproyl 3-(3-acrylamido-4-methylphenyl)-2-(4-(1-methylpiperidin-4-yl)phenyl)-1H-pyrrolo[2,3-b]pyridine-5-carboxylate 2,2,2-trifluoroacetate] | ≤ 100 nM | 100 to 500 nM | 100 to 500 nM | 1000 to 100000 nM | 100 to 500 nM | ≤ 100 nM | ≤ 100 nM |
| C=CC(=O)N1CCc2ccc(-c3c(-c4ccnc(N5CCN(C)CC5)c4)[nH]c4nccc(OCC)c34)cc21 [Example 105] | ≤ 100 nM | ≤ 100 nM | 100 to 500 nM | 100 to 500 nM | 100 to 500 nM | ≤ 100 nM | ≤ 100 nM |
| C=CC(=O)Nc1cc(-c2c(-c3cccc(C(=O)NCCCN4CCCC4)c3)[nH]c3nccc(Cl)c23)ccc1C [Example 47, 3-(3-(3-acrylamido-4-methylphenyl)-4-chloro-1H-pyrrolo[2,3-b]pyridin-2-yl)-N-(3-(pyrrolidin-1-yl)propyl)benzamide] | ≤ 100 nM | ≤ 100 nM | 1000 to 10000 nM | 500 to 1000 nM | 1000 to 10000 nM | ≤ 100 nM | ≤ 100 nM |
| C=CC(=O)Nc1cc(-c2c(-c3ccc(N4CCN(C)CC4)cc3)[nH]c3ncc(CO)cc23)ccc1C [Example 199, N-(5-(5-(hydroxymethyl)-2-(4-(4-methylpiperazin-1-yl)phenyl)-1H-pyrrolo[2,3-b]pyridin-3-yl)-2-methylphenyl)acrylamide 2,2,2-trifluoroacetate] | ≤ 100 nM | 100 to 500 nM | 500 to 1000 nM | 1000 to 100000 nM | 100 to 500 nM | ≤ 100 nM | ≤ 100 nM |
| C=CC(=O)Nc1cc(-c2c(-c3ccc(N4CCN(C)CC4)cc3)[nH]c3ncc(C(=O)NCc4cccc(C(N)=O)c4)cc23)ccc1C [Example 133, 3-(3-acrylamido-4-methylphenyl)-N-(3-carbamoylbenzyl)-2-(4-(4-methylpiperazin-1-yl)phenyl)-1H-pyrrolo[2,3-b]pyridine-5-carboxamide] | 100 to 500 nM | > 10000 nM | > 10000 nM | > 10000 nM | > 10000 nM | ≤ 100 nM | 100 to 500 nM |
| C=CC(=O)N1CCCc2ccc(-c3c(-c4ccc(C5CCN(C)CC5)cc4)[nH]c4nccc(Cl)c34)cc21 [Example 87, 1-(7-(4-chloro-2-(4-(1-methylpiperidin-4-yl)phenyl)-1H-pyrrolo[2,3-b]pyridin-3-yl)-3,4-dihydroquinolin-1(2H)-yl)prop-2-en-1-one] | ≤ 100 nM | 100 to 500 nM | 500 to 1000 nM | 1000 to 100000 nM | 500 to 1000 nM | ≤ 100 nM | ≤ 100 nM |
| C=CC(=O)Nc1cc(-c2c(-c3ccc(N4CCN(C)CC4)cc3)[nH]c3ncc(OC(F)(F)F)cc23)ccc1C [Example 188, N-(2-methyl-5-(2-(4-(4-methylpiperazin-1-yl)phenyl)-5-(trifluoromethoxy)-1H-pyrrolo[2,3-b]pyridin-3-yl)phenyl)acrylamide 2,2,2-trifluoroacetate] | ≤ 100 nM | 100 to 500 nM | 100 to 500 nM | 1000 to 100000 nM | 100 to 500 nM | ≤ 100 nM | ≤ 100 nM |
| C=CC(=O)Nc1cc(-c2c(-c3ccc(N4CCN(C)CC4)cc3)[nH]c3ncc(C(=O)NCc4ccc(F)cc4F)cc23)ccc1C [Example 131, 3-(3-acrylamido-4-methylphenyl)-N-(2,4-difluorobenzyl)-2-(4-(4-methylpiperazin-1-yl)phenyl)-1H-pyrrolo[2,3-b]pyridine-5-carboxamide] | 500 to 1000 nM | 1000 to 100000 nM | 500 to 1000 nM | 1000 to 100000 nM | 1000 to 10000 nM | ≤ 100 nM | 100 to 500 nM |
| C=CC(=O)Nc1cc(-c2c(-c3ccc(N4CCN(C(C)=O)CC4)cc3)[nH]c3ncc(C(=O)OC(C)C)cc23)ccc1C [Example 162, isopropyl 2-(4-(4-acetylpiperazin-1-yl)phenyl)-3-(3-acrylamido-4-methylphenyl)-1H-pyrrolo[2,3-b]pyridine-5-carboxylate] | ≤ 100 nM | 1000 to 100000 nM | 1000 to 10000 nM | 1000 to 100000 nM | 500 to 1000 nM | ≤ 100 nM | ≤ 100 nM |
